Test system: T47D (PIK3CA H1047R) cells
Assay: pS473 AKT assay with 2.5% FBS, T47D cells
Format: cell-based
Conditions: Homo sapiens, pSer473 AKT, DMEM with 2.5% FBS, 2 h treatment, read-out: T47D_IC50
How it was run: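 T47D (PIK3CA H1047R) cells were switched to DMEM with 2.5% FBS and exposed to compounds for 2 h. After paraformaldehyde fixation, pSer473 AKT was detected by in-cell ELISA (rabbit primary, HRP anti-rabbit secondary, chemiluminescence); IC50 values were fitted from the concentration series.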

SMILES	IC50 [nM]
CCn1ncc2c3c(C(C)Nc4ccc(Cl)nc4-c4ccc(=O)n(C)c4)cc(C)cc3c(=O)n(CC(F)F)c21 (stereo not drawn) [Example 239, 9-(1-((6-chloro-1′-methyl-6′-oxo-1′,6′-dihydro-[2,3′-bipyridin]-3-yl)amino)ethyl)-4-(2,2-difluoroethyl)-3-ethyl-7-methyl-3,4-dihydro-5H-pyrazolo[3,4-c]isoquinolin-5-one]	< 1000
CCn1ncc2c3c(C(C)Nc4ccc(Cl)nc4-c4ccc(C(=O)NC)nc4)cc(C)cc3c(=O)n(CC(F)F)c21 (stereo not drawn) [Example 240, 6-chloro-3-((1-(4-(2,2-difluoroethyl)-3-ethyl-7-methyl-5-oxo-4,5-dihydro-3H-pyrazolo[3,4-c]isoquinolin-9-yl)ethyl)amino)-N-methyl-[2,3′-bipyridine]-6′-carboxamide]	< 1000
CCn1ncc2c3c(C(C)Nc4ccc(Cl)nc4C4CCN(C(C)=O)CC4)cc(C)cc3c(=O)n(C)c21 (stereo not drawn) [Example 241, 9-[1-[[2-(1-Acetyl-4-piperidyl)-6-chloro-3-pyridyl]amino]ethyl]-3-ethyl-4,7-dimethyl-pyrazolo[3,4-c]isoquinolin-5-one]	< 1000
Cc1cc(C(C)Nc2ccc(Cl)nc2-c2ncn(C)n2)c2c(c1)c(=O)n(C)c1c2cnn1CCO (stereo not drawn) [Example 242, 9-(1-((6-Chloro-2-(1-methyl-1H-1,2,4-triazol-3-yl)pyridin-3-yl)amino)ethyl)-3-(2-hydroxyethyl)-4,7-dimethyl-3,4-dihydro-5H-pyrazolo[3,4-c]isoquinolin-5-one]	< 1000
CNC(=O)c1ccc(-c2nc(Cl)ccc2NC(C)c2cc(C)cc3c(=O)n(C)c4c(cnn4CCO)c23)cc1F (stereo not drawn) [Example 243, 4-(6-chloro-3-((1-(3-(2-hydroxyethyl)-4,7-dimethyl-5-oxo-4,5-dihydro-3H-pyrazolo[3,4-c]isoquinolin-9-yl)ethyl)amino)pyridin-2-yl)-2-fluoro-N-methylbenzamide]	< 1000
Cc1cc(C(C)Nc2ccc(Cl)nc2-c2cnn(C)c2)c2c(c1)c(=O)n(C)c1c2cnn1CCO (stereo not drawn) [Example 244, 9-(1-((6-chloro-2-(1-methyl-1H-pyrazol-4-yl)pyridin-3-yl)amino)ethyl)-3-(2-hydroxyethyl)-4,7-dimethyl-3,4-dihydro-5H-pyrazolo[3,4-c]isoquinolin-5-one]	< 1000
Cc1cc(C(C)Nc2ccc(Cl)nc2N2CCC(O)CC2)c2c(c1)c(=O)n(C)c1c2cnn1CCO (stereo not drawn) [Example 245, 9-(1-((6-chloro-2-(4-hydroxypiperidin-1-yl)pyridin-3-yl)amino)ethyl)-3-(2-hydroxyethyl)-4,7-dimethyl-3,4-dihydro-5H-pyrazolo[3,4-c]isoquinolin-5-one]	< 1000
Cc1cc(C(C)Nc2ccc(Cl)nc2-c2ccc3ncccc3c2)c2c(c1)c(=O)n(C)c1c2cnn1CCO (stereo not drawn) [Example 246, 9-(1-((6-chloro-2-(quinolin-6-yl)pyridin-3-yl)amino)ethyl)-3-(2-hydroxyethyl)-4,7-dimethyl-3,4-dihydro-5H-pyrazolo[3,4-c]isoquinolin-5-one]	< 1000
Cc1cc(C(C)Nc2ccc(Cl)nc2-c2ccc3c(cnn3C)c2)c2c(c1)c(=O)n(C)c1c2cnn1CCO (stereo not drawn) [Example 247, 9-(1-((6-chloro-2-(1-methyl-1H-indazol-5-yl)pyridin-3-yl)amino)ethyl)-3-(2-hydroxyethyl)-4,7-dimethyl-3,4-dihydro-5H-pyrazolo[3,4-c]isoquinolin-5-one]	< 1000
Cc1cc(C(C)Nc2ccc(Cl)nc2-c2ccc3c(c2)CN(C)C3=O)c2c(c1)c(=O)n(C)c1c2cnn1CCO (stereo not drawn) [Example 248, 9-(1-((6-chloro-2-(2-methyl-1-oxoisoindolin-5-yl)pyridin-3-yl)amino)ethyl)-3-(2-hydroxyethyl)-4,7-dimethyl-3,4-dihydro-5H-pyrazolo[3,4-c]isoquinolin-5-one]	< 1000
Cc1cc(C(C)Nc2ccc(C)nc2-c2cnn(C)c2)c2c(c1)c(=O)n(C)c1c2cnn1CCO (stereo not drawn) [Example 249, 3-(2-hydroxyethyl)-4,7-dimethyl-9-(1-((6-methyl-2-(1-methyl-1H-pyrazol-4-yl)pyridin-3-yl)amino)ethyl)-3,4-dihydro-5H-pyrazolo[3,4-c]isoquinolin-5-one]	< 1000
Cc1cc(C(C)Nc2ccc(Cl)nc2-c2nnco2)c2c(c1)c(=O)n(C)c1c2cnn1CCO (stereo not drawn) [Example 250, 9-(1-((6-chloro-2-(1,3,4-oxadiazol-2-yl)pyridin-3-yl)amino)ethyl)-3-(2-hydroxyethyl)-4,7-dimethyl-3,4-dihydro-5H-pyrazolo[3,4-c]isoquinolin-5-one]	< 1000
Cc1cc(C(C)Nc2ccc(Cl)nc2-c2nnn(C)n2)c2c(c1)c(=O)n(C)c1c2cnn1CCO (stereo not drawn) [Example 251, 9-(1-((6-chloro-2-(2-methyl-2H-tetrazol-5-yl)pyridin-3-yl)amino)ethyl)-3-(2-hydroxyethyl)-4,7-dimethyl-3,4-dihydro-5H-pyrazolo[3,4-c]isoquinolin-5-one]	< 1000
Cc1cc(C(C)Nc2ccc(Cl)nc2-c2cncnc2)c2c(c1)c(=O)n(C)c1c2cnn1CCO (stereo not drawn) [Example 252, 9-(1-((6-chloro-2-(pyrimidin-5-yl)pyridin-3-yl)amino)ethyl)-3-(2-hydroxyethyl)-4,7-dimethyl-3,4-dihydro-5H-pyrazolo[3,4-c]isoquinolin-5-one]	< 1000
CNC(=O)c1ccc(-c2nc(Cl)ccc2NC(C)c2cc(C)cc3c(=O)n(C)c4c(cnn4CCO)c23)cn1 (stereo not drawn) [Example 253, 5-[6-Chloro-3-[1-[3-(2-hydroxyethyl)-4,7-dimethyl-5-oxo-pyrazolo[3,4-c]isoquinolin-9-yl]ethylamino]-2-pyridyl]-N-methyl-pyridine-2-carboxamide]	< 1000
Cc1cc(C(C)Nc2ccc(Cl)nc2-c2ccc(=O)n(C)c2)c2c(c1)c(=O)n(C)c1c2cnn1CCO (stereo not drawn) [Example 254, 9-[1-[[6-chloro-2-(1-methyl-6-oxo-3-pyridyl)-3-pyridyl]amino]ethyl]-3-(2-hydroxyethyl)-4,7-dimethyl-pyrazolo[3,4-c]isoquinolin-5-one]	< 1000
Cc1cc(C(C)Nc2ccc(Cl)nc2-c2ccn(C)c(=O)c2)c2c(c1)c(=O)n(C)c1c2cnn1CCO (stereo not drawn) [Example 255, 9-[1-[[6-chloro-2-(1-methyl-2-oxo-4-pyridyl)-3-pyridyl]amino]ethyl]-3-(2-hydroxyethyl)-4,7-dimethyl-pyrazolo[3,4-c]isoquinolin-5-one]	< 1000
COc1cc(-c2nc(Cl)ccc2NC(C)c2cc(C)cc3c(=O)n(C)c4c(cnn4CCO)c23)ccn1 (stereo not drawn) [Example 256, 9-[1-[[6-chloro-2-(2-methoxy-4-pyridyl)-3-pyridyl]amino]ethyl]-3-(2-hydroxyethyl)-4,7-dimethyl-pyrazolo[3,4-c]isoquinolin-5-one]	< 1000
Cc1cc(C(C)Nc2ccc(Cl)nc2C2CCN(C)CC2)c2c(c1)c(=O)n(C)c1c2cnn1CCO (stereo not drawn) [Example 257, 9-[1-[[6-Chloro-2-(1-methyl-4-piperidyl)-3-pyridyl]amino]ethyl]-3-(2-hydroxyethyl)-4,7-dimethyl-pyrazolo[3,4-c]isoquinolin-5-one]	< 1000
CC(=O)N1CCC(c2nc(Cl)ccc2NC(C)c2cc(C)cc3c(=O)n(C)c4c(cnn4CCO)c23)CC1 (stereo not drawn) [Example 258, 9-[1-[[2-(1-Acetyl-4-piperidyl)-6-chloro-3-pyridyl]amino]ethyl]-3-(2-hydroxyethyl)-4,7-dimethyl-pyrazolo[3,4-c]isoquinolin-5-one]	< 1000
Cc1cc(C(C)Nc2ccc(Cl)nc2-c2ncn(C)n2)c2c(c1)c(=O)n(CC(F)F)c1c2cnn1CCO (stereo not drawn) [Example 259, 9-[1-[[6-Chloro-2-(1-methyl-1,2,4-triazol-3-yl)-3-pyridyl]amino]ethyl]-4-(2,2-difluoroethyl)-3-(2-hydroxyethyl)-7-methyl-pyrazolo[3,4-c]isoquinolin-5-one]	< 1000
CNC(=O)c1ccc(-c2nc(Cl)ccc2NC(C)c2cc(C)cc3c(=O)n(CC(F)F)c4c(cnn4CCO)c23)cn1 (stereo not drawn) [Example 260, 5-[6-Chloro-3-[1-[4-(2,2-difluoroethyl)-3-(2-hydroxyethyl)-7-methyl-5-oxo-pyrazolo[3,4-c]isoquinolin-9-yl]ethylamino]-2-pyridyl]-N-methyl-pyridine-2-carboxamide]	< 1000
CCn1c(=O)c2cc(C)cc(C(C)Nc3ccc(Cl)nc3-c3ncn(C)n3)c2c2cnn(CCO)c21 (stereo not drawn) [Example 261, 9-[1-[[6-Chloro-2-(1-methyl-1,2,4-triazol-3-yl)-3-pyridyl]amino]ethyl]-4-ethyl-3-(2-hydroxyethyl)-7-methyl-pyrazolo[3,4-c]isoquinolin-5-one]	< 1000
CCn1c(=O)c2cc(C)cc(C(C)Nc3ccc(Cl)nc3N3CCOCC3)c2c2cnn(CCO)c21 (stereo not drawn) [Example 262, 9-[1-[(6-Chloro-2-morpholino-3-pyridyl)amino]ethyl]-4-ethyl-3-(2-hydroxyethyl)-7-methyl-pyrazolo[3,4-c]isoquinolin-5-one]	< 1000
Cc1cc(C(C)Nc2ccc(Cl)nc2-c2cnn(C)c2)c2c(c1)c(=O)n(C)c1c2cnn1CCN1CCOCC1 (stereo not drawn) [Example 263, 9-[1-[[6-Chloro-2-(1-methylpyrazol-4-yl)-3-pyridyl]amino]ethyl]-4,7-dimethyl-3-(2-morpholinoethyl)pyrazolo[3,4-c]isoquinolin-5-one]	< 1000
Cc1cc(C(C)Nc2ccc(Cl)nc2-c2ccncc2F)c2c(c1)c(=O)n(C)c1c2cnn1CCN1CCOCC1 (stereo not drawn) [Example 264, 9-(1-((6-chloro-3′-fluoro-[2,4′-bipyridin]-3-yl)amino)ethyl)-4,7-dimethyl-3-(2-morpholinoethyl)-3,4-dihydro-5H-pyrazolo[3,4-c]isoquinolin-5-one]	< 1000
Cc1cc(C(C)Nc2ccc(Cl)nc2-c2ccncc2F)c2c(c1)c(=O)n(C)c1c2cnn1CCN1CCN(C)CC1 (stereo not drawn) [Example 265, 9-(1-((6-chloro-3′-fluoro-[2,4′-bipyridin]-3-yl)amino)ethyl)-4,7-dimethyl-3-(2-(4-methylpiperazin-1-yl)ethyl)-3,4-dihydro-5H-pyrazolo[3,4-c]isoquinolin-5-one]	< 1000
